Nine compounds from patent US10787432B2, “N-[(pyridyloxy)propanyl]benzamides” (Boehringer Ingelheim International GmbH, priority 2016, dated 2020) can be followed below.

One series addresses T1, human orexin 2 receptor (Homo sapiens, UniProt O43614).
T1 construct: stably expressing the full-length human orexin 2 receptor; expressed in transfected cells; host or cells: CHO-K1 (CHO-K1/hOX2), co-expressing aequorin
T1 sequence (O43614 1-444): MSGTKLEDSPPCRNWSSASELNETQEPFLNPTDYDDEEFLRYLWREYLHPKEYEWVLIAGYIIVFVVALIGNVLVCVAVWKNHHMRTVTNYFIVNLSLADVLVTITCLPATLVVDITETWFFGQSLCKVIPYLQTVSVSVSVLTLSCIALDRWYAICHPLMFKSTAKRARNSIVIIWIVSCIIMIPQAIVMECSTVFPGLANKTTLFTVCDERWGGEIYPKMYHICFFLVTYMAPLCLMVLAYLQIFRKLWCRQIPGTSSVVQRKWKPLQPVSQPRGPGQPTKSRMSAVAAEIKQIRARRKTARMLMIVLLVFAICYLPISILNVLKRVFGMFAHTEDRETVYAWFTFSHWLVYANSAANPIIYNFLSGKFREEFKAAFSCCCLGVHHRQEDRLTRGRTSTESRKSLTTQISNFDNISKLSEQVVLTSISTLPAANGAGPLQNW
The series can be described thus: Assay B: In vitro testing of OX2R potency: OX2R IP1 (HTRF, CHO-K1/hOX2 cells, Orexin A as agonist). In kind it is cell-based.
Conditions: not given
An excerpt:
Activation of the orexin receptors expressed in cell lines results in an increase in intracellular IP3 concentration. IP1, a downstream metabolite of IP3, accumulates in cells following receptor activation and is stable in the presence of LiCl. Using Homogeneous Time-Resolved Fluorescence technology with Lumi4-Tb cryptate (commercially available from Cisbio Bioassay.) and a suitable fluorescence plate reader. […] Chem. Genomics 2009, 3, 22-32. This technique is used to characterize pharmacological modification of the orexin receptors.
B. In Vitro Testing of OX2R Potency: OX2R IP1
IP1 measurements are performed in CHO-K1 cells stably expressing the full-length human orexin 2 receptor and the aequorin photoprotein. Cells are cultivated in Ham's nutrient mixture F12 medium with 10% fetal calf serum, in a 37° C., 95% humidity and 5% CO2 incubator. The CHO-K1/hOX2 cell mass is expanded to larger cell numbers. The cells are obtained as frozen cells in cryo-vials and stored until use at −150° C. The viability of the cells after thawing is >90%. In preparation for the assay, 24 hours before the assay, the cells are thawed at 37° C. and immediately diluted with cell culture medium. After centrifugation, the cell pellet is resuspended in medium and then distributed into the assay plates with a density of 5000 cells/25 μL per well. The plates are incubated for one hour at room temperature to reduce edge effects before they are incubated for 24 hours at 37° C./5% CO2. Compounds are prepared by a 8-point serial dilution in DMSO and a final dilution step into assay buffer (HBSS with 20 mM HEPES, 0.1% BSA and 50 mM LiCl, pH 7.4) to ensure a final DMSO concentration of 1% in the assay.
On the day of the assay, cells in the plate are washed twice with 60 μL assay buffer (20 μL buffer remained in the wells after washing), followed by adding 5 μL per well of compounds diluted in assay buffer. After 15 minutes of incubation at room temperature 5 μL per well of Orexin A peptide (final concentration: 0.5 nM) dissolved in assay buffer is added to the assay plate. The assay plate is incubated for 60 minutes at 37° C. Then 5 μL per well of Anti-IP1-Cryptate Tb solution and 5 μL per well of IP1-d2 dilution are added to all well of the plate and the plate is incubated for a further 60 minutes light protected at room temperature. The emission at 615 nm and 665 nm (Excitation wavelength: 320 nm) are measured using an EnVision reader (PerkinElmer). The ratio between the emission at 665 nm and 615 is calculated by the reader.
8-point four parametric non-linear curve fitting and determination of IC50 values and Hill slopes is performed using a regular analysis software e.g. AssayExplorer (Accelrys). In order to establish an agonist concentration independent parameter, Kb values are calculated using the following equation: IC50/((2+(A/EC50)n)^1/n−1) (with A=concentration agonist, EC50=EC50 agonist, n=Hill slope agonist) (see P. Leff, I. G. Dougall, Trends Pharmacol. Sci. 1993, 14(4), 110-112).
Kb values from Assay A (OX1R) and Assay B (OX2R) can then provide a selectivity ratio which is independent of the agonist (Orexin A) concentration.
On to `CCN(C(=O)c1cccc(F)c1-n1nccn1)[C@@H](C)COc1ccc(F)c(C(F)(F)F)n1` [Example 133], for which the Kb stood at 101 nM.

The same series, now with this note: Orexin A 0.5 nM.
Turning to `CCN(C(=O)c1ccc(Cl)cc1-n1nccn1)[C@@H](C)COc1ncc(C(F)(F)F)cc1F` [Example 73], the Kb came to 235 nM.
On the same count and under the same terms, to `CCN(C(=O)c1cccc(F)c1-c1ncccn1)[C@@H](C)COc1ccc(C(F)(F)F)cn1` [Example 97] belongs 20 nM; to `CC[C@@H](CNc1ccc(C(F)(F)F)cn1)N(C)C(=O)c1cc(Cl)ccc1-n1nccn1` [Ex 42 in WO2016/034882, reference compound], 229 nM.
The compound `CCN(C(=O)c1ccccc1-c1cnc(C)nc1)[C@@H](C)COc1ccc(C(F)(F)F)cn1` [Example 85] showed a Kb of 583 nM.
For `CCN(C(=O)c1c(F)cccc1-n1nccn1)[C@@H](C)COc1ncc(C(F)(F)F)cc1F` [Example 56], the Kb stood at 108 nM.
As for `CCN(C(=O)c1cc(F)ccc1-c1ncccn1)[C@@H](C)COc1ccc(C(F)(F)F)cn1` [Example 107], the Kb is 32 nM.
`CCN(C(=O)c1ccc(Cl)cc1-n1nccn1)[C@@H](C)COc1ccc(C(F)(F)F)cn1` [Example 26] came in with a Kb of 22 nM.
On to `CCN(C(=O)c1c(F)cccc1-c1ncccn1)[C@@H](C)COc1ccc(C(F)(F)F)cn1` [Example 116], for which the Kb was 45 nM.

Another series deals with T2, human Orexin 1 receptor (Homo sapiens, UniProt O43613).
T2 construct: stably expressing the full-length human Orexin 1 receptor; expressed in transfected cells; host or cells: CHO-K1 (CHO-K1/hOX1), co-expressing aequorin
T2 sequence (O43613 1-425): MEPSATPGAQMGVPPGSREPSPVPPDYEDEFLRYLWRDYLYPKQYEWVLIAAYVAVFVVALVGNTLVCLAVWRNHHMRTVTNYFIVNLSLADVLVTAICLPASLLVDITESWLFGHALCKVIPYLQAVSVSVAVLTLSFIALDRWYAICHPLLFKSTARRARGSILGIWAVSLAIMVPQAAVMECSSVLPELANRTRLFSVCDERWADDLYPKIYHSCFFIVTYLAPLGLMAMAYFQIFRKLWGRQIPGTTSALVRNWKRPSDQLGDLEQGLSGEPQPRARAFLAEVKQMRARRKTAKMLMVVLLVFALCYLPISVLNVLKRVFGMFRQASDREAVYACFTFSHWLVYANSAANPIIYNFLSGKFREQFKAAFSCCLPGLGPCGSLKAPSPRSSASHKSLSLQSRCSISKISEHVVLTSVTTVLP
The series can be described thus: Assay A: In vitro testing of OX1R potency: OX1R IP1 (HTRF, CHO-K1/hOX1 cells, Orexin A as agonist). Type of series: cell-based.
Conditions: not given
Consider `CCN(C(=O)c1cccc(F)c1-n1nccn1)[C@@H](C)COc1ccc(F)c(C(F)(F)F)n1` [Example 133], for which the Kb was found to be 1.6 nM.

The same series, now with this note: OX1R Kb at 0.5 nM Orexin A.
On to `CCN(C(=O)c1ccccc1-c1cnc(C)nc1)[C@@H](C)COc1ccc(C(F)(F)F)cn1` [Example 85], for which the “OX2R Kb/OX1R Kb” value stood at 68.
Still for that read-out and setting: to `CCN(C(=O)c1c(F)cccc1-n1nccn1)[C@@H](C)COc1ncc(C(F)(F)F)cc1F` [Example 56] belongs 98; to `CCN(C(=O)c1c(F)cccc1-c1ncccn1)[C@@H](C)COc1ccc(C(F)(F)F)cn1` [Example 116], 132.
Same read-out and setting: as for `CCN(C(=O)c1cccc(F)c1-n1nccn1)[C@@H](C)COc1ccc(F)c(C(F)(F)F)n1` [Example 133], the figure is 63.

The same series, now with this note: OX1R Kb at 50 nM Orexin A.
Take `CCN(C(=O)c1ccc(Cl)cc1-n1nccn1)[C@@H](C)COc1ncc(C(F)(F)F)cc1F` [Example 73]: the “OX2R Kb/OX1R Kb” value worked out at 734.
On the same count and under the same terms, as for `CCN(C(=O)c1cccc(F)c1-c1ncccn1)[C@@H](C)COc1ccc(C(F)(F)F)cn1` [Example 97], the figure is 800; as for `CCN(C(=O)c1c(F)cccc1-n1nccn1)[C@@H](C)COc1ncc(C(F)(F)F)cc1F` [Example 56], 257.
Same read-out and setting: as for `CCN(C(=O)c1cc(F)ccc1-c1ncccn1)[C@@H](C)COc1ccc(C(F)(F)F)cn1` [Example 107], the figure is 500; as for `CCN(C(=O)c1ccc(Cl)cc1-n1nccn1)[C@@H](C)COc1ccc(C(F)(F)F)cn1` [Example 26], 400.
As to `CCN(C(=O)c1c(F)cccc1-c1ncccn1)[C@@H](C)COc1ccc(C(F)(F)F)cn1` [Example 116], the “OX2R Kb/OX1R Kb” value was found to be 205.

The same series, now with this note: Orexin A 0.5 nM; read-out: OX1R Kb (Orexin A concentration used).
Take `CCN(C(=O)c1ccccc1-c1cnc(C)nc1)[C@@H](C)COc1ccc(C(F)(F)F)cn1` [Example 85]: the Kb was found to be 8.6 nM.
On to `CCN(C(=O)c1c(F)cccc1-n1nccn1)[C@@H](C)COc1ncc(C(F)(F)F)cc1F` [Example 56], for which the Kb was 1.1 nM.
Regarding `CCN(C(=O)c1c(F)cccc1-c1ncccn1)[C@@H](C)COc1ccc(C(F)(F)F)cn1` [Example 116], the Kb is 0.34 nM.

The same series, now with this note: Orexin A 50 nM; read-out: OX1R Kb (Orexin A concentration used).
For `CCN(C(=O)c1ccc(Cl)cc1-n1nccn1)[C@@H](C)COc1ncc(C(F)(F)F)cc1F` [Example 73], the Kb came out at 0.32 nM.
The same measure, in the same setting: to `CCN(C(=O)c1cccc(F)c1-c1ncccn1)[C@@H](C)COc1ccc(C(F)(F)F)cn1` [Example 97] belongs 0.025 nM; to `CCN(C(=O)c1c(F)cccc1-n1nccn1)[C@@H](C)COc1ncc(C(F)(F)F)cc1F` [Example 56], 0.42 nM.
On to `CCN(C(=O)c1cc(F)ccc1-c1ncccn1)[C@@H](C)COc1ccc(C(F)(F)F)cn1` [Example 107], for which the Kb came to 0.064 nM.
On the same count and under the same terms, as for `CCN(C(=O)c1ccc(Cl)cc1-n1nccn1)[C@@H](C)COc1ccc(C(F)(F)F)cn1` [Example 26], the figure is 0.055 nM; as for `CCN(C(=O)c1c(F)cccc1-c1ncccn1)[C@@H](C)COc1ccc(C(F)(F)F)cn1` [Example 116], 0.22 nM.

System in a further series: not listed separately
Description: Assay C: Metabolic stability in human liver microsomes (Human MST). Type of series: in vitro ADME. The settings on record: pooled human liver microsomes, pH 7.6; human liver microsomes 1 mg/mL, compound 1 μM, 37° C., NADPH; read-out: Human MST t1/2. The procedure:
C. Assessment of Metabolic Stability in Human Liver Microsomes (Human MST)
The metabolic stability of the compounds according to the invention may be investigated as follows:
The metabolic degradation of the test compound is assayed at 37° C. with pooled human liver microsomes. The final incubation volume of 100 μL per time point contains TRIS buffer pH 7.6 at room temperature (0.1 M), MgCl2 (5 mM), microsomal protein (1 mg/mL) and the test compound at a final concentration of 1 μM. Following a short pre-incubation period at 37° C., the reactions are initiated by addition of beta-nicotinamide adenine dinucleotide phosphate, reduced form (NADPH, 1 mM), and terminated by transferring an aliquot into solvent after different time points. After centrifugation (10000 g, 5 min), an aliquot of the supernatant is assayed by LC-MS/MS for the amount of parent compound. The half-life (t1/2) is determined by the slope of the semi-logarithmic plot of the concentration-time profile.
On to `CCN(C(=O)c1ccc(Cl)cc1-n1nccn1)[C@@H](C)COc1ncc(C(F)(F)F)cc1F` [Example 73], for which the half-life at 1 μM was found to be 12 min.
`CCN(C(=O)c1cccc(F)c1-c1ncccn1)[C@@H](C)COc1ccc(C(F)(F)F)cn1` [Example 97]: the half-life at 1 μM came to 100 min.
Still for that read-out and setting: to `CC[C@@H](CNc1ccc(C(F)(F)F)cn1)N(C)C(=O)c1cc(Cl)ccc1-n1nccn1` [Ex 42 in WO2016/034882, reference compound] belongs 7 min; to `CCN(C(=O)c1ccccc1-c1cnc(C)nc1)[C@@H](C)COc1ccc(C(F)(F)F)cn1` [Example 85], 17 min.
As for `CCN(C(=O)c1c(F)cccc1-n1nccn1)[C@@H](C)COc1ncc(C(F)(F)F)cc1F` [Example 56], the half-life at 1 μM was 48 min.
Take `CCN(C(=O)c1cc(F)ccc1-c1ncccn1)[C@@H](C)COc1ccc(C(F)(F)F)cn1` [Example 107]: the half-life at 1 μM is 65 min.
`CCN(C(=O)c1ccc(Cl)cc1-n1nccn1)[C@@H](C)COc1ccc(C(F)(F)F)cn1` [Example 26]: the half-life at 1 μM was 15 min.
`CCN(C(=O)c1c(F)cccc1-c1ncccn1)[C@@H](C)COc1ccc(C(F)(F)F)cn1` [Example 116]: the half-life at 1 μM came to 33 min.
For the compound `CCN(C(=O)c1cccc(F)c1-n1nccn1)[C@@H](C)COc1ccc(F)c(C(F)(F)F)n1` [Example 133], the half-life at 1 μM stood at 21 min.
